Assay results: BindingDB's records for doi:10.1016/j.chembiol.2008.02.015 (University of Dundee, 2008)
pIC50: −log10 of the molar value. Numbered stars: 1 amine (or outer) side, 2 acyl side, 3 side chain; on linkers, the order of the positions; unused ones are H or OH. Square brackets hold non-standard residues; d marks the D form. Side chains are listed from the residue outwards. Peptide text beside a SMILES is read from it. NMeF = CN[C@@H](Cc1ccccc1)C(=O)O; CO = O=C([*:1])[*:2]

What was measured:
Endochitinase B1 = Endochitinase B1 (Aspergillus fumigatus, UniProt Q873X9); test: Inhibition Assay; conditions: pH 5.5
Chitotriosidase-1 = Chitotriosidase-1 (Homo sapiens, UniProt Q13231); test: Inhibition Assay; conditions: pH 5.5
Chitotriosidase-1, sequence (Q13231 whole entry): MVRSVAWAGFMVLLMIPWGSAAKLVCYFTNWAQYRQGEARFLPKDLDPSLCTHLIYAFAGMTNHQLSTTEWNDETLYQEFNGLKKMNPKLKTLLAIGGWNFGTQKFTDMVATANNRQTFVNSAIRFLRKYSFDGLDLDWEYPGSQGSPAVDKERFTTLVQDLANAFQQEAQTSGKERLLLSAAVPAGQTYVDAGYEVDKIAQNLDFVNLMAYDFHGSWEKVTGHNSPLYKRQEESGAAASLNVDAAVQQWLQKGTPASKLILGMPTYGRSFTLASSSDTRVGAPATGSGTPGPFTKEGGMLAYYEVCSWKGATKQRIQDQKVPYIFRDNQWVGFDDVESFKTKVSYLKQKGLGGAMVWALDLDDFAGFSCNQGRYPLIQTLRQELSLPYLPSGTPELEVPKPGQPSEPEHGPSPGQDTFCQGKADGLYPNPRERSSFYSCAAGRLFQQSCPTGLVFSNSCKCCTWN

Question: With `CNC(=O)NC(=N)NCCC[C@@H]1NC(=O)[C@@H](C)NC(=O)C[C@@H](C(=O)O)NC(=O)C[C@@H](C(=O)O)NC(=O)[C@H](Cc2ccccc2)N(C)C1=O` [(2R,5S,8S,11S,15S)-8-benzyl-2,7-dimethyl-5-[3-({[(methylcarbamoyl)amino]methanimidoyl}amino)propyl]-3,6,9,13,17-pentaoxo-1,4,7,10,14-pentaazacycloheptadecane-11,15-dicarboxylic acid] as the molecule, how does the pIC50 (Endochitinase B1) read?
Answer: Its pIC50 is 7.57.

Question: How did the pIC50 (Chitotriosidase-1) turn out when `CNC(=O)NC(N)=NCCC[C@H](NC(=O)[C@@H](C)NC(C)=O)C(=O)N(C)[C@@H](Cc1ccccc1)C(=O)N[C@@H](CC(=O)O)C(=O)O` [Tetrapeptide] was run?
Answer: The pIC50 was 4.55.

Question: `CNC(=O)NC(N)=NCCC[C@H](NC(C)=O)C(=O)NC` [Monopeptide] was tested. Which pIC50 (Chitotriosidase-1) did it give?
Answer: Its pIC50 is 3.00.

Question: How did the pIC50 (Chitotriosidase-1) turn out when `CNC(=O)NC(N)=NCCC[C@H](NC(C)=O)C(=O)N(C)[C@@H](Cc1ccccc1)C(=O)N[C@@H](CC(=O)O)C(=O)O` [Tripeptide] (Ac-Arg([CO-NHMe])-[NMeF]-Asp-OH) was run?
Answer: The pIC50 was 4.17.

Question: And the pIC50 (Endochitinase B1)?
Answer: The pIC50 was 5.29.

Question: With `[H]/N=C(\NC)NC(=O)NC` [Argifin-Derived Fragments, 1] as the molecule, how does the pIC50 (Chitotriosidase-1) read?
Answer: Its pIC50 is 2.24.

Question: What about the pIC50 (Endochitinase B1) of the same molecule?
Answer: Its pIC50 is 3.30.

Question: `CNC(=O)NC(=N)NCCC[C@H](NC(C)=O)C(=O)N(C)[C@@H](Cc1ccccc1)C(=O)O` was tested. Which pIC50 (Chitotriosidase-1) did it give?
Answer: The pIC50 was 3.72.
